In ChEMBL document CHEMBL1145539 (2007):
In brackets after ≈: the same amount, converted by molar mass.

Key:
[1] = tested on: Staphylococcus aureus; experiment: Antimicrobial activity against community-acquired methicillin-resistant Staphylococcus aureus Panton-Valentine leukocidin negative by time-kill methodology; type: functional
[2] = tested on: Staphylococcus aureus; experiment: Antimicrobial activity against vancomycin-intermediate Staphylococcus aureus by time-kill methodology; type: functional
[3] = tested on: Staphylococcus aureus; experiment: Antimicrobial activity against methicillin-susceptible Staphylococcus aureus by time-kill methodology
[4] = tested on: Staphylococcus aureus; experiment: Antimicrobial activity against vancomycin-resistant Staphylococcus aureus by time-kill methodology; type: functional
[5] = tested on: Staphylococcus aureus; experiment: Antimicrobial activity against community-acquired methicillin-resistant Staphylococcus aureus Panton-Valentine leukocidin positive by time-kill methodology; type: functional
[6] = tested on: Staphylococcus aureus; experiment: Antimicrobial activity against nosocomially-acquired methicillin-resistant Staphylococcus aureus by time-kill methodology; type: functional

Compound | MIC [1] [µg/mL] | MIC [2] [µg/mL] | MIC [3] [µg/mL] | MIC [4] [µg/mL] | MIC [5] [µg/mL] | MIC [6] [µg/mL]
CO[C@H]1/C=C/O[C@@]2(C)Oc3c(C)c(O)c4c(O)c(c(/C=N/N5CCN(C)CC5)c(O)c4c3C2=O)NC(=O)/C(C)=C\C=C\[C@H](C)[C@H](O)[C@@H](C)[C@@H](O)[C@@H](C)[C@H](OC(C)=O)[C@@H]1C [RIFAMPIN] | 0.016 (≈ 0.0194 µM) | 0.016 (≈ 0.0194 µM) | 0.008 (≈ 0.00972 µM) | 0.008 (≈ 0.00972 µM) | 0.004 (≈ 0.00486 µM) | 0.004 (≈ 0.00486 µM)
GENTAMICIN | 1 | 1 |  | 64 | 1 | 1
CCCCCCCCCC(=O)N[C@@H](Cc1c[nH]c2ccccc12)C(=O)N[C@H](CC(N)=O)C(=O)N[C@@H](CC(=O)O)C(=O)N[C@@H]1C(=O)NCC(=O)N[C@@H](CCCN)C(=O)N[C@@H](CC(=O)O)C(=O)N[C@H](C)C(=O)N[C@@H](CC(=O)O)C(=O)NCC(=O)N[C@H](CO)C(=O)N[C@@H]([C@H](C)CC(=O)O)C(=O)N[C@@H](CC(=O)c2ccccc2N)C(=O)O[C@@H]1C | 0.5 (≈ 0.309 µM) | 2 (≈ 1.23 µM) | 0.25 (≈ 0.154 µM) | 0.25 (≈ 0.154 µM) | 0.5 (≈ 0.309 µM) | 0.25 (≈ 0.154 µM)
